Structures can show the parent of a compound that is named as a salt.
Key:
L. mexicana amastigote = format: cell-based; details: Leishmania mexicana, J774.A1, read-out: inhibition at 0.1 μM vs L. mexicana
Plasmodium yoelli = Plasmodium yoelli infection in mice; format: in vivo; details: unpublished results
[1] = In vitro metabolic stability in human liver microsomes; format: in vitro ADME; details: 1 μM; 0.5 mg/mL microsomes; up to 60 min
[2] = In vitro metabolic stability in mouse liver microsomes; format: in vitro ADME; details: 1 μM; 0.5 mg/mL microsomes; up to 60 min
[3] = tested on: Salmonella typhimurium TA100 and TA98; assay: Ames mutagenicity assay; format: cell-based; details: up to 10 μM, with and without S9
L. mexicana = assay: In vivo efficacy, murine model of cutaneous leishmaniasis; set-up: species or system BALB/c mice; details: oral gavage 40–60 mg/kg/d for 10 days

SMILES	metabolic stability (t1/2, min) vs HLM [1] [min]	metabolic stability (t1/2, min) vs MLM [2] [min]	inhibition of growth at 0.1 µM (L. mexicana amastigote) [%]	efficacy in curing Plasmodium yoelli infections in mice (Plasmodium yoelli)	Ames mutagenicity result [3]	in vivo efficacy compared with the other TAs tested (L. mexicana)
COC1=CC(c2ccc[nH]2)=N/C1=C\Nc1ccccc1OC(F)(F)F [compound 59, (Z)-N-((4'-Methoxy-1H,5'H-[2,2'-bipyrrol]-5'-ylidene)methyl)-2-(trifluoromethoxy)aniline Hydrochloride]			~30			
CCC1=C(CC)/C(=C/N[C@H]2CC[C@H](C)CC2)N=C1c1ccc[nH]1.Cl [compound 95, (1r,4r)-N-((Z)-(3',4'-Diethyl-1H,5'H-[2,2'-bipyrrol]-5'-ylidene)methyl)-4-methylcyclohexan-1-amine Hydrochloride]	23.3	37.5		strong efficacy		
C(/NC1CCCCC1)=C1/N=C(c2ccc[nH]2)C2=C1CCCC2.Cl [compound 101, (Z)-N-((3-(1H-Pyrrol-2-yl)-4,5,6,7-tetrahydro-1H-isoindol-1-ylidene)methyl)cyclohexanamine Hydrochloride]	26.7	33.0		strong efficacy		
COc1ccc(Oc2ccc(N/C=C3\N=C(c4ccc[nH]4)C4=C3CCCC4)cc2)cc1.Cl [compound 108, (Z)-N-((3-(1H-Pyrrol-2-yl)-4,5,6,7-tetrahydro-1H-isoindol-1-ylidene)methyl)-4-(4-methoxyphenoxy)aniline Hydrochloride]	> 60.0	> 60.0				
Cc1ccc(Oc2ccc(N/C=C3\N=C(c4ccc[nH]4)C4=C3CCCC4)cc2)cc1.Cl [compound 109, (Z)-N-((3-(1H-Pyrrol-2-yl)-4,5,6,7-tetrahydro-1H-isoindol-1-ylidene)methyl)-4-(p-tolyloxy)aniline Hydrochloride]	> 60.0	> 60.0				
CCc1ccc(C2=N/C(=C\NC3CCCCCC3)C(C)=C2C)[nH]1.Cl [compound 110, (Z)-N-((5-Ethyl-3',4'-dimethyl-1H,5'H-[2,2'-bipyrrol]-5'-ylidene)methyl)cycloheptanamine Hydrochloride]	> 60.0	> 60.0		strong efficacy	negative	greater efficacy than both 95 and 101
CC1=C(C)/C(=C/NC2CCCCCC2)N=C1c1ccc(CC(C)C)[nH]1.Cl [compound 111, (Z)-N-((5-Isobutyl-3',4'-dimethyl-1H,5'H-[2,2'-bipyrrol]-5'-ylidene)methyl)cycloheptanamine Hydrochloride]	> 60.0	> 60.0				
CCc1ccc(C2=N/C(=C\NC3CCCCCCC3)C(C)=C2C)[nH]1.Cl [compound 112, (Z)-N-((5-Ethyl-3',4'-dimethyl-1H,5'H-[2,2'-bipyrrol]-5'-ylidene)methyl)cyclooctanamine Hydrochloride]	> 60.0	> 60.0				
CCc1c(C)[nH]c(C2=N/C(=C\NC34CC5CC(CC(C5)C3)C4)C(C)=C2C)c1C.Cl [compound 116]	> 60.0	29.0				

More lines, main results first:

metabolic stability (t1/2, min) vs HLM [1] [min]	metabolic stability (t1/2, min) vs MLM [2] [min]	SMILES	inhibition of growth at 0.1 µM (L. mexicana amastigote) [%]	efficacy in curing Plasmodium yoelli infections in mice (Plasmodium yoelli)	Ames mutagenicity result [3]	in vivo efficacy compared with the other TAs tested (L. mexicana)
> 60.0	7.98	CCc1ccc(C2=N/C(=C\NC3CCCCCC3)C(OC)=C2)[nH]1.Cl [compound 117, (Z)-N-((5-Ethyl-4'-methoxy-1H,5'H-[2,2'-bipyrrol]-5'-ylidene)methyl)cycloheptanamine Hydrochloride]				
> 60.0	> 60.0	COC1=CC(c2ccc(-c3ccc(OC)cc3)[nH]2)=N/C1=C\NC1CCCCCC1.Cl [compound 118, (Z)-N-((4'-Methoxy-5-(4-methoxyphenyl)-1H,5'H-[2,2'-bipyrrol]-5'-ylidene)methyl)cycloheptanamine Hydrochloride]				
11.7	10.4	COC1=CC(c2ccc(Cc3ccc(OC)cc3)[nH]2)=N/C1=C\NC1CCCC1.Cl [compound 119, (Z)-N-((4'-Methoxy-5-(4-methoxybenzyl)-1H,5'H-[2,2'-bipyrrol]-5'-ylidene)methyl)cyclopentanamine Hydrochloride]				
19.7	13.8	COC1=CC(c2ccc(Cc3ccc(OC)cc3)[nH]2)=N/C1=C\NC1CCCCC1.Cl [compound 120, (Z)-N-((4'-Methoxy-5-(4-methoxybenzyl)-1H,5'H-[2,2'-bipyrrol]-5'-ylidene)methyl)cyclohexanamine Hydrochloride]				
25.6	14.8	COC1=CC(c2ccc(Cc3ccc(OC)cc3)[nH]2)=N/C1=C\NC1CCCCCC1.Cl [compound 121, (Z)-N-((4'-Methoxy-5-(4-methoxybenzyl)-1H,5'H-[2,2'-bipyrrol]-5'-ylidene)methyl)cycloheptanamine Hydrochloride]				
50.8	16.5	COC1=CC(c2ccc(Cc3ccc(OC)cc3)[nH]2)=N/C1=C\NC1CCCCCCC1.Cl [compound 122, (Z)-N-((4'-Methoxy-5-(4-methoxybenzyl)-1H,5'H-[2,2'-bipyrrol]-5'-ylidene)methyl)cyclooctanamine Hydrochloride]				
> 60.0	> 60.0	COC1=CC(c2ccc(Cc3ccc(OC)cc3)[nH]2)=N/C1=C\NC12CC3CC(CC(C3)C1)C2.Cl [compound 123, (3s,5s,7s)-N-((Z)-(4'-Methoxy-5-(4-methoxybenzyl)-1H,5'H-[2,2'-bipyrrol]-5'-ylidene)methyl)adamantan-1-amine Hydrochloride]				

— publication PMC11163866 (Journal of medicinal chemistry, 2024)
